Legend:
submissive rats = test: Reduction of Submissive Behavior Model (RSBM) of depression, dominant-submissive rat food competition test; type: in vivo, Sprague-Dawley rats; settings: for Effect on submissive rat behavior (competitiveness, time spent at feeder): 5 weeks, submissive rat treated
Source text: (§1) In this study, the effects of COMPOUND #7 on dominant or submissive behavior in pairs of rats competing for food are examined. It has been shown that anti-manic drugs, including anticonvulsants, decrease dominance and antidepressant drugs reduce submissiveness. This model uses dominant behavior as a model of mania and submissive behavior as a model of depression. The dominance and submissiveness is defined in a competition test and measured as the relative success of two food-restricted rats to gain access to a feeder. Rats are randomly paired and placed in an apparatus allowing them to compete for a food reward. The dominant-submissive relationship develops over a 2-week period. The submissive or dominant animals in pairs selected after 2 weeks of training were treated orally […] (b.i.d.) with COMPOUND #7 at 3 or 30 mg/kg for 5 weeks. The partner of the drug-treated animal was treated with vehicle.
The objective of this study was to determine if COMPOUND #7 is active in the Reduction of Submissive Behavior Model (RSBM) of depression and the Reduction of Dominant Behavior Model (RDBM) of mania. Measurements were made at two doses (3 and 30 mg/kg) after oral twice a day (b.i.d.) administration. The effect of the drug in the RSBM was compared to the effect of fluoxetine (10 mg/kg) and vehicle (0.5% methylcellulose). The effect of the drug in the RDBM was compared with the effect of lithium (100 mg/kg) and vehicle (0.5% methylcellulose). The endpoints measured were the development of a significant reduction of submissive or dominant behavior and its time of onset.
The DSR developed by two rats competing for food uses the apparatus in FIG. 1.
In the experiments described in this report Sprague-Dawley rats weighing 160 to 180 g were used. Testing for the development of a DSR between paired rats begins with the random assignment of rats into pairs. […]
(§2) The test involves placing each member of a pair in opposite chambers of the testing apparatus. […] The test is conducted once a day over a 5-minute period and the time spent on the feeder by each animal is recorded. […]

dominant rats [1] = test: Reduction of Dominant Behavior Model (RDBM) of mania, dominant-submissive rat food competition test; type: in vivo, Sprague-Dawley rats; settings: 5 weeks, dominant rat treated
Source text: as §1, with “The partner of the drug-treated animal was treated with vehicle.” left out
The objective of this study was to determine if COMPOUND #7 is active in the Reduction of Submissive Behavior Model (RSBM) of depression and the Reduction of Dominant Behavior Model (RDBM) of mania. […] The endpoints measured were the development of a significant reduction of submissive or dominant behavior and its time of onset. […]
as §2

[2] = system: Crl:CD-1(ICR)BR albino mice; test: Isolation-induced aggression model in pairs of mice; type: in vivo
Procedure: The effects of test compound on the aggressive behavior of Crl:CD-1(ICR)BR albino mice were evaluated using the paradigm of isolation-induced aggression.
Male Crl:CD-1(ICR)BR albino mice, fasted overnight, were individually housed for 5 weeks in plastic cages on wood-chip bedding. Subsequently, they were paired for 1 minute daily for several days by placing one individually housed mouse (intruder) into the resident cage of another individually housed mouse (resident). The 1-minute pairing of intruder and resident mouse elicits aggressive behavior. Pairs of mice showing consistent aggressive behavior when paired for 1 minute, during several days were selected as subjects for drug testing.
Test compound (10 to 40 mg/kg p.o.) or the vehicle (methocel; aqueous 0.5%, w/v, hydroxypropyl methylcellulose solution) was administered (10 mL/kg) to the resident and intruder mouse. One and 4 hours after dosing, the mice were paired and the onset of fighting was recorded. […] The duration of fighting during a 1-minute test period was recorded. Mice were re-used in this procedure after several days to a week to allow metabolism and elimination of test compounds. The mice weighed 32 to 49 g at the time of testing and were fasted overnight before dosing. Mice were euthanized with CO2 if they were sick or injured.
Results were expressed as the median onset of fighting and median duration of fighting in vehicle and drug-treated groups. The statistical significance of an increase in the median onset or a reduction in the median duration of fighting in pairs of mice given test compound or its vehicle 1 and 4 hours after administration was determined using the nonparametric Wilcoxon test (p<0.05, 1-tailed).

male mice = test: General behavior of male mice, visual observation using a checklist of behaviors; type: in vivo; settings: for Number of Mice Affected: Decreased Open Field Activity / Number of Mice Affected: Decreased Startle Reflex / Number of Mice Affected: Extensor Limb Tone (hind limb) / Number of Mice Affected: Impaired Horizontal Screen Performance / Number of Mice Affected: Impaired Visual Placing Reflex / Number of Mice Affected: Locomotor Ataxia / Number of Mice Affected: Loss of Corneal Reflex / Number of Mice Affected: Loss of Pinnal Reflex / Number of Mice Affected: Loss of Righting Reflex / Number of Mice Affected: Passive Response to Handling / Number of Mice Affected: Reduced Skin Plasticity / Number of Mice Affected: Soft Body Tone / Number of Mice Affected: Tail Pinch Response, Absent: N = 3/group
Procedure: The effects of test compound on general behavior were evaluated by visual observation using a checklist of behaviors.

dominant rats [3] = settings: administered to dominant rats; literature (Malatynska 2002); cited from earlier work

## NC(=O)OC[C@@H](O)c1ccccc1Cl [COMPOUND #7]
Submissive rats; 3 mg/kg b.i.d. p.o.
  Effect on submissive rat behavior (competitiveness, time spent at feeder): did not have any effect
Submissive rats; 30 mg/kg b.i.d. p.o., vs vehicle-treated
  Effect on submissive rat behavior (competitiveness, time spent at feeder): significantly increased competitiveness
Dominant rats [1]; 3 mg/kg b.i.d. p.o.
  Effect on performance (competitiveness) of dominant rats: decreased the performance
Dominant rats [1]; 30 mg/kg b.i.d. p.o.
  Effect on performance (competitiveness) of dominant rats: significantly increased the competitiveness
[2]; 20 mg/kg p.o., 4 hours after administration
  Onset for initiation of fighting compared to vehicle-treated group: statistically significantly shorter
[2]; 40 mg/kg p.o., 1 hour after administration, vs vehicle (p<0.05)
  Effect on isolation-induced aggressive behavior: inhibited isolation-induced aggressive behavior
[2]; any dose group (10 to 40 mg/kg p.o.), 4 hours after administration
  Effect on median duration of fighting compared to vehicle-treated groups: not affected
Male mice; 40 mg/kg p.o., 1 h
  Number of Mice Affected: Decreased Open Field Activity: 0
  Number of Mice Affected: Decreased Startle Reflex: 0
  Number of Mice Affected: Extensor Limb Tone (hind limb): 0
  Number of Mice Affected: Impaired Horizontal Screen Performance: 0
  Number of Mice Affected: Impaired Visual Placing Reflex: 0
  Number of Mice Affected: Locomotor Ataxia: 0
  Number of Mice Affected: Loss of Corneal Reflex: 0
  Number of Mice Affected: Loss of Pinnal Reflex: 0
  Number of Mice Affected: Loss of Righting Reflex: 0
  Number of Mice Affected: Passive Response to Handling: 0
  Number of Mice Affected: Reduced Skin Plasticity: 0
  Number of Mice Affected: Soft Body Tone: 0
  Number of Mice Affected: Tail Pinch Response, Absent: 0
Male mice; 40 mg/kg p.o., 4 h
  Number of Mice Affected: Decreased Open Field Activity: 0
  Number of Mice Affected: Decreased Startle Reflex: 0
  Number of Mice Affected: Extensor Limb Tone (hind limb): 0
  Number of Mice Affected: Impaired Horizontal Screen Performance: 0
  Number of Mice Affected: Impaired Visual Placing Reflex: 0
  Number of Mice Affected: Locomotor Ataxia: 0
  Number of Mice Affected: Loss of Corneal Reflex: 0
  Number of Mice Affected: Loss of Pinnal Reflex: 0
  Number of Mice Affected: Loss of Righting Reflex: 0
  Number of Mice Affected: Passive Response to Handling: 0
  Number of Mice Affected: Reduced Skin Plasticity: 0
  Number of Mice Affected: Soft Body Tone: 0
  Number of Mice Affected: Tail Pinch Response, Absent: 0
Male mice; 100 mg/kg p.o., 1 h
  Number of Mice Affected: Decreased Open Field Activity: 0
  Number of Mice Affected: Decreased Startle Reflex: 0
  Number of Mice Affected: Extensor Limb Tone (hind limb): 0
  Number of Mice Affected: Impaired Horizontal Screen Performance: 0
  Number of Mice Affected: Impaired Visual Placing Reflex: 0
  Number of Mice Affected: Locomotor Ataxia: 0
  Number of Mice Affected: Loss of Corneal Reflex: 0
  Number of Mice Affected: Loss of Pinnal Reflex: 0
  Number of Mice Affected: Loss of Righting Reflex: 0
  Number of Mice Affected: Passive Response to Handling: 0
  Number of Mice Affected: Reduced Skin Plasticity: 0
  Number of Mice Affected: Soft Body Tone: 0
  Number of Mice Affected: Tail Pinch Response, Absent: 0
Male mice; 100 mg/kg p.o., 4 h
  Number of Mice Affected: Decreased Open Field Activity: 0
  Number of Mice Affected: Decreased Startle Reflex: 0
  Number of Mice Affected: Extensor Limb Tone (hind limb): 0
  Number of Mice Affected: Impaired Horizontal Screen Performance: 0
  Number of Mice Affected: Impaired Visual Placing Reflex: 0
  Number of Mice Affected: Locomotor Ataxia: 0
  Number of Mice Affected: Loss of Corneal Reflex: 0
  Number of Mice Affected: Loss of Pinnal Reflex: 0
  Number of Mice Affected: Loss of Righting Reflex: 0
  Number of Mice Affected: Passive Response to Handling: 0
  Number of Mice Affected: Reduced Skin Plasticity: 0
  Number of Mice Affected: Soft Body Tone: 0
  Number of Mice Affected: Tail Pinch Response, Absent: 0
Male mice; 300 mg/kg p.o.
  Behavioral or physical signs (general behavior): produced sedation
Male mice; 300 mg/kg p.o., 1 h
  Number of Mice Affected: Decreased Open Field Activity: 3
  Number of Mice Affected: Decreased Startle Reflex: 3
  Number of Mice Affected: Extensor Limb Tone (hind limb): 3
  Number of Mice Affected: Impaired Horizontal Screen Performance: 3
  Number of Mice Affected: Impaired Visual Placing Reflex: 3
  Number of Mice Affected: Locomotor Ataxia: 0
  Number of Mice Affected: Loss of Corneal Reflex: 3
  Number of Mice Affected: Loss of Pinnal Reflex: 3
  Number of Mice Affected: Loss of Righting Reflex: 3
  Number of Mice Affected: Passive Response to Handling: 3
  Number of Mice Affected: Reduced Skin Plasticity: 3
  Number of Mice Affected: Soft Body Tone: 3
  Number of Mice Affected: Tail Pinch Response, Absent: 3
Male mice; 300 mg/kg p.o., 4 h
  Number of Mice Affected: Decreased Open Field Activity: 2
  Number of Mice Affected: Decreased Startle Reflex: 0
  Number of Mice Affected: Extensor Limb Tone (hind limb): 2
  Number of Mice Affected: Impaired Horizontal Screen Performance: 2
  Number of Mice Affected: Impaired Visual Placing Reflex: 0
  Number of Mice Affected: Locomotor Ataxia: 2
  Number of Mice Affected: Loss of Corneal Reflex: 0
  Number of Mice Affected: Loss of Pinnal Reflex: 0
  Number of Mice Affected: Loss of Righting Reflex: 0
  Number of Mice Affected: Passive Response to Handling: 0
  Number of Mice Affected: Reduced Skin Plasticity: 0
  Number of Mice Affected: Soft Body Tone: 2
  Number of Mice Affected: Tail Pinch Response, Absent: 0
Male mice; doses up to 100 mg/kg p.o.
  Behavioral or physical signs (general behavior): No behavioral or physical signs were observed

## CC(N)Cc1ccccc1 (stereo not drawn) [amphetamine, reference compound]
Submissive rats; treatment of submissive rats, unpublished observation
  Effect on submissive behavior: ineffective

## NC(=O)N1c2ccccc2C=Cc2ccccc21 [carbamazepine]
Dominant rats [3]
  Effect on competitive behavior of dominant rats: significantly reduced competitive behavior

## Clc1cccc(Cl)c1N=C1NCCN1 [clonidine]
Dominant rats [3]
  Effect on competitive behavior of dominant rats: significantly reduced competitive behavior

Reference: patent publication US20080103199A1, “TREATMENT OF PERVASIVE DEVELOPMENTAL DISORDERS” (priority 2006, published 2008)
